Assay: Solubility testing in polyethylene wax (POLYWAX 655)
Format: physicochemical
Settings: 1 g Solvent Black 3 or 2 g distearyl derivative in 50 g POLYWAX 655; 120° C. oil bath, stirred 3 h, then 1 h without stirring
Excerpt: Solvent Black 3 (NEPTUN BLACK X60, BASF), of the formula
[drawing 36] molecular weight 456, and the distearyl derivative, a compound as disclosed herein, of the formula
[drawing 37] molecular weight 892, were compared for solubility in polyethylene wax, a predominant component in phase change inks. 1 g of the Solvent Black 3 and 2 g of the distearyl derivative (because its molecular weight was about twice that of Solvent Black 3) were each dissolved in 50 g portions of POLYWAX 655 (Baker Petrolite) in 100 mL beakers equipped with magnetic stir bars. The solutions were placed in 120° C. oil baths and allowed to stir for 3 h, followed by cessation of stirring for 1 h, after which the solutions were poured into aluminum tins.

SMILES	solubility in polyethylene wax (solids on the bottom of the beaker)
CC1(C)Nc2cccc3c(/N=N/c4ccc(/N=N/c5ccccc5)c5ccccc45)ccc(c23)N1 [Solvent Black 3]	a substantial amount of the Solvent Black 3 appeared on the bottom of its beaker
CCCCCCCCCCCCCCCCCC1(CCCCCCCCCCCCCCCCC)Nc2cccc3c(/N=N/c4ccc(/N=N/c5ccccc5)c5ccccc45)ccc(c23)N1 [distearyl derivative]	almost no solids appeared on the bottom of the beaker

From US9309410B2, “Colorant compounds” (Xerox Corporation, priority 2013, dated 2016)
